Measured values reported in patent US4684664A, “Derivatives of β-(4-isocyano-1,2,3,4-diepoxycyclopentyl) acrylic acid” (Kureha Kagaku Kogyo Kabushiki Kaisha, priority 1984, dated 1987).
≈ marks a conversion by molar mass, not a printed value.

Legend:
Format in all cases: cell-based
[1] = test system: Escherichia coli K12 C600 IAM 1264; assay: Antibacterial activity, agar-dilution MIC, organism No. 6; conditions: Escherichia coli, IAM1264; Organism No. 6, bouillon-agar; read-out: Minimum Inhibitory Concentration
How it was run: (§1)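 For each organism the specimen was serially diluted into bouillon agar, and inhibition was scored to give the MIC in μg/ml of culture medium.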

[2] = test system: Enterobacter cloacae 963; assay: Antibacterial activity, agar-dilution MIC, organism No. 24; conditions: Enterobacter cloacae, 963; Organism No. 24, bouillon-agar; read-out: Minimum Inhibitory Concentration
How it was run: as §1

[3] = test system: Mycoplasma pneumoniae IID817; assay: Antimycoplasmal activity, MIC by phenol red colour change, organism No. 28; conditions: Mycoplasma, IID817; Organism No. 28, PPLO broth + 1% glucose, 37° C.; read-out: Minimum Inhibitory Concentration (MIC)
Method: Mycoplasma pneumoniae IID817 was used as the test microorganism in a culture medium prepared by adding 1% of glucose to "PPLO broth (manufactured by Difco Co.) liquid culture medium" at 37° C. with phenol red as an indicator, thereby culturing the test microorganism.

[4] = test system: Aspergillus niger IFO 6342; assay: Antifungal activity, agar-dilution MIC, organism No. 30; conditions: Aspergillus niger, IFO6342; Organism No. 30, bouillon-agar; read-out: Minimum Inhibitory Concentration
How it was run: as §1

[5] = test system: Pseudomonas aeruginosa PAO 1; assay: Antibacterial activity, agar-dilution MIC, organism No. 17; conditions: Pseudomonas aeruginosa, PAO1; Organism No. 17, bouillon-agar; read-out: Minimum Inhibitory Concentration
How it was run: as §1

[6] = test system: Bacillus subtilis ATCC 6633; assay: Antibacterial activity, agar-dilution MIC, organism No. 14; conditions: Bacillus subtilis, ATCC6633; Organism No. 14, bouillon-agar; read-out: Minimum Inhibitory Concentration
How it was run: as §1

[7] = test system: Salmonella typhi 901; assay: Antibacterial activity, agar-dilution MIC, organism No. 9; conditions: Salmonella enterica, TYPHI, read-out: Minimum Inhibitory Concentration
How it was run: as §1

[8] = test system: Proteus vulgaris HX-19; assay: Antibacterial activity, agar-dilution MIC, organism No. 21; conditions: Proteus vulgaris, HX19; Organism No. 21, bouillon-agar; read-out: Minimum Inhibitory Concentration
How it was run: as §1

[9] = test system: Staphylococcus aureus Terajima; assay: Antibacterial activity, agar-dilution MIC, organism No. 2; conditions: Staphylococcus aureus; Organism No. 2, bouillon-agar; read-out: Minimum Inhibitory Concentration
How it was run: as §1

[10] = test system: Pseudomonas aeruginosa NCTC 10490; assay: Antibacterial activity, agar-dilution MIC, organism No. 16; conditions: Pseudomonas aeruginosa, NCTC10490; Organism No. 16, bouillon-agar; read-out: Minimum Inhibitory Concentration
How it was run: as §1

[11] = test system: Streptococcus pyogenes Cook; assay: Antibacterial activity, agar-dilution MIC, organism No. 4; conditions: Streptococcus pyogenes; Organism No. 4, bouillon-agar; read-out: Minimum Inhibitory Concentration
How it was run: as §1

[12] = test system: Klebsiella pneumoniae PCI-602; assay: Antibacterial activity, agar-dilution MIC, organism No. 7; conditions: Klebsiella pneumoniae, PCI602; Organism No. 7, bouillon-agar; read-out: Minimum Inhibitory Concentration
How it was run: as §1

[13] = test system: Candida albicans IAM 4905; assay: Antifungal activity, agar-dilution MIC, organism No. 29; conditions: Candida albicans, IAM4905; Organism No. 29, bouillon-agar; read-out: Minimum Inhibitory Concentration
How it was run: as §1

[14] = test system: Proteus rettgeri IFO 3850; assay: Antibacterial activity, agar-dilution MIC, organism No. 22; conditions: Providencia rettgeri, IFO3850; Organism No. 22, bouillon-agar; read-out: Minimum Inhibitory Concentration
How it was run: as §1

[15] = test system: Staphylococcus aureus MS 353; assay: Antibacterial activity, agar-dilution MIC, organism No. 3; conditions: Staphylococcus aureus, MS353; Organism No. 3, bouillon-agar; read-out: Minimum Inhibitory Concentration
How it was run: as §1

[16] = test system: Staphylococcus aureus FDA 209PJc-1; assay: Antibacterial activity, agar-dilution MIC, organism No. 1; conditions: Staphylococcus aureus, FDA209PJC1; Organism No. 1, bouillon-agar; read-out: Minimum Inhibitory Concentration
How it was run: as §1

[17] = test system: Salmonella shottmuelleri 8006; assay: Antibacterial activity, agar-dilution MIC, organism No. 11; conditions: Salmonella, 8006; Organism No. 11, bouillon-agar; read-out: Minimum Inhibitory Concentration
How it was run: as §1

[18] = test system: Proteus vulgaris OX-19; assay: Antibacterial activity, agar-dilution MIC, organism No. 20; conditions: Proteus vulgaris, OX19; Organism No. 20, bouillon-agar; read-out: Minimum Inhibitory Concentration
How it was run: as §1

[19] = test system: Proteus morganii IFO 3848; assay: Antibacterial activity, agar-dilution MIC, organism No. 18; conditions: Morganella morganii, IFO3848; Organism No. 18, bouillon-agar; read-out: Minimum Inhibitory Concentration
How it was run: as §1

[20] = test system: Enterobacter aerogenes ATCC 13048; assay: Antibacterial activity, agar-dilution MIC, organism No. 23; conditions: Klebsiella aerogenes, ATCC13048; Organism No. 23, bouillon-agar; read-out: Minimum Inhibitory Concentration
How it was run: as §1

[21] = test system: Escherichia coli NIHJ-JC-2; assay: Antibacterial activity, agar-dilution MIC, organism No. 5; conditions: Escherichia coli, NIHJJC2; Organism No. 5, bouillon-agar; read-out: Minimum Inhibitory Concentration
How it was run: as §1

[22] = test system: Salmonella paratyphi-A 1015; assay: Antibacterial activity, agar-dilution MIC, organism No. 10; conditions: Salmonella enterica, PARATYPHI, read-out: Minimum Inhibitory Concentration
How it was run: as §1

[23] = test system: Streptococcus pyogenes IFO 3340; assay: Antibacterial activity, agar-dilution MIC, organism No. 26; conditions: Streptococcus pyogenes, IFO3340; Organism No. 26, bouillon-agar; read-out: Minimum Inhibitory Concentration
How it was run: as §1

[24] = test system: Serratia marcescens IAM 1184; assay: Antibacterial activity, agar-dilution MIC, organism No. 13; conditions: Serratia marcescens, IAM1184; Organism No. 13, bouillon-agar; read-out: Minimum Inhibitory Concentration
How it was run: as §1

[25] = test system: Salmonella typhimurium IID 971; assay: Antibacterial activity, agar-dilution MIC, organism No. 8; conditions: Salmonella enterica; Organism No. 8, bouillon-agar; read-out: Minimum Inhibitory Concentration
How it was run: as §1

[26] = test system: Salmonella enteritidis G 14; assay: Antibacterial activity, agar-dilution MIC, organism No. 12; conditions: Salmonella enterica, ENTERITIDIS; Organism No. 12, bouillon-agar; read-out: Minimum Inhibitory Concentration
How it was run: as §1

[27] = test system: Pseudomonas aeruginosa IFO 3445; assay: Antibacterial activity, agar-dilution MIC, organism No. 15; conditions: Pseudomonas aeruginosa, IFO3445; Organism No. 15, bouillon-agar; read-out: Minimum Inhibitory Concentration
How it was run: as §1

[28] = test system: Streptococcus faecium IFO 3826; assay: Antibacterial activity, agar-dilution MIC, organism No. 27; conditions: Enterococcus faecium, IFO3826; Organism No. 27, bouillon-agar; read-out: Minimum Inhibitory Concentration
How it was run: as §1

[29] = test system: Proteus mirabilis IFO 3849; assay: Antibacterial activity, agar-dilution MIC, organism No. 19; conditions: Proteus mirabilis, IFO3849; Organism No. 19, bouillon-agar; read-out: Minimum Inhibitory Concentration
How it was run: as §1

[30] = test system: Micrococcus luteus ATCC 9341; assay: Antibacterial activity, agar-dilution MIC, organism No. 25; conditions: Micrococcus luteus, ATCC9341; Organism No. 25, bouillon-agar; read-out: Minimum Inhibitory Concentration
How it was run: as §1

Structure (SMILES) | MIC [1] | MIC [2] | MIC [3] | MIC [4] | MIC [5] | MIC [6] | MIC [7] | MIC [8] | MIC [9] | MIC [10] | MIC [11] | MIC [12] | MIC [13] | MIC [14] | MIC [15] | MIC [16] | MIC [17] | MIC [18] | MIC [19] | MIC [20] | also measured
[C-]#[N+]C12CC3(/C=C/C(=O)OCC(=O)c4ccc(C)cc4)OC3C1O2 (stereo not drawn) [compound 6] | > 100 µg/mL | > 100 µg/mL | < 0.2 µg/mL | 3.13 µg/mL (≈ 9.62 µM) | > 100 µg/mL | 100 µg/mL (≈ 307 µM) | 50 µg/mL (≈ 154 µM) | 0.2 µg/mL (≈ 0.615 µM) | 25 µg/mL (≈ 76.8 µM) | > 100 µg/mL | > 100 µg/mL | 50 µg/mL (≈ 154 µM) | 0.8 µg/mL (≈ 2.46 µM) | > 100 µg/mL | 0.78 µg/mL (≈ 2.4 µM) | 0.39 µg/mL (≈ 1.2 µM) | 50 µg/mL (≈ 154 µM) | 1.56 µg/mL (≈ 4.8 µM) | 12.5 µg/mL (≈ 38.4 µM) | > 100 µg/mL | MIC [21]: > 100 µg/mL; MIC [22]: > 100 µg/mL; MIC [23]: < 100 µg/mL; MIC [24]: > 100 µg/mL; MIC [25]: > 100 µg/mL; MIC [26]: > 100 µg/mL; MIC [27]: > 100 µg/mL; MIC [28]: 25 µg/mL (≈ 76.8 µM); MIC [29]: > 100 µg/mL; MIC [30]: 0.39 µg/mL (≈ 1.2 µM)
[C-]#[N+]C12CC3(/C=C/C(=O)OCC(=O)c4cccc(OC)c4)OC3C1O2 (stereo not drawn) [compound 7] | 12.5 µg/mL (≈ 36.6 µM) | > 100 µg/mL | < 0.2 µg/mL | 3.13 µg/mL (≈ 9.17 µM) | > 100 µg/mL | 6.25 µg/mL (≈ 18.3 µM) | 6.25 µg/mL (≈ 18.3 µM) | 0.39 µg/mL (≈ 1.14 µM) | 6.25 µg/mL (≈ 18.3 µM) | > 100 µg/mL | 12.5 µg/mL (≈ 36.6 µM) | 3.13 µg/mL (≈ 9.17 µM) | 1.56 µg/mL (≈ 4.57 µM) | > 100 µg/mL | 0.39 µg/mL (≈ 1.14 µM) | 0.39 µg/mL (≈ 1.14 µM) | 6.25 µg/mL (≈ 18.3 µM) | 1.56 µg/mL (≈ 4.57 µM) | 12.5 µg/mL (≈ 36.6 µM) | > 100 µg/mL | MIC [21]: 25 µg/mL (≈ 73.2 µM); MIC [22]: 12.5 µg/mL (≈ 36.6 µM); MIC [23]: 12.5 µg/mL (≈ 36.6 µM); MIC [24]: 25 µg/mL (≈ 73.2 µM); MIC [25]: 25 µg/mL (≈ 73.2 µM); MIC [26]: 12.5 µg/mL (≈ 36.6 µM); MIC [27]: > 100 µg/mL; MIC [28]: 6.25 µg/mL (≈ 18.3 µM); MIC [29]: 12.5 µg/mL (≈ 36.6 µM); MIC [30]: 0.39 µg/mL (≈ 1.14 µM)
[C-]#[N+]C12CC3(/C=C/C(=O)Nc4cccc(C(F)(F)F)c4)OC3C1O2 (stereo not drawn) [compound 47] | 200 µg/mL (≈ 595 µM) | > 200 µg/mL | < 0.2 µg/mL | 3.13 µg/mL (≈ 9.31 µM) | > 200 µg/mL | 0.78 µg/mL (≈ 2.32 µM) | 3.13 µg/mL (≈ 9.31 µM) | < 0.05 µg/mL | 0.2 µg/mL (≈ 0.595 µM) | > 200 µg/mL | 200 µg/mL (≈ 595 µM) | < 0.05 µg/mL | 1.56 µg/mL (≈ 4.64 µM) | 50 µg/mL (≈ 149 µM) | < 0.05 µg/mL | < 0.05 µg/mL | 0.1 µg/mL (≈ 0.297 µM) | < 0.05 µg/mL | < 0.05 µg/mL | > 200 µg/mL | MIC [21]: 200 µg/mL (≈ 595 µM); MIC [22]: 3.13 µg/mL (≈ 9.31 µM); MIC [23]: 0.39 µg/mL (≈ 1.16 µM); MIC [24]: 25 µg/mL (≈ 74.3 µM); MIC [25]: 3.13 µg/mL (≈ 9.31 µM); MIC [26]: 3.13 µg/mL (≈ 9.31 µM); MIC [27]: > 200 µg/mL; MIC [28]: 3.13 µg/mL (≈ 9.31 µM); MIC [29]: > 200 µg/mL; MIC [30]: 0.78 µg/mL (≈ 2.32 µM)
[C-]#[N+]C12CC3(/C=C/C(=O)OCC(=O)c4ccc(Cl)cc4)OC3C1O2 (stereo not drawn) [compound 5] | < 0.05 µg/mL | 0.1 µg/mL (≈ 0.289 µM) | < 0.05 µg/mL | 6.25 µg/mL (≈ 18.1 µM) | > 100 µg/mL | 12.5 µg/mL (≈ 36.2 µM) | 3.13 µg/mL (≈ 9.05 µM) | 0.39 µg/mL (≈ 1.13 µM) | 0.78 µg/mL (≈ 2.26 µM) | > 100 µg/mL | 12.5 µg/mL (≈ 36.2 µM) | 6.25 µg/mL (≈ 18.1 µM) | 1.56 µg/mL (≈ 4.51 µM) | 100 µg/mL (≈ 289 µM) | 0.78 µg/mL (≈ 2.26 µM) | 0.05 µg/mL (≈ 0.145 µM) | < 0.05 µg/mL | 0.39 µg/mL (≈ 1.13 µM) | 100 µg/mL (≈ 289 µM) | 100 µg/mL (≈ 289 µM) | MIC [21]: 6.25 µg/mL (≈ 18.1 µM); MIC [22]: < 0.05 µg/mL; MIC [23]: 1.56 µg/mL (≈ 4.51 µM); MIC [24]: > 100 µg/mL; MIC [25]: 6.25 µg/mL (≈ 18.1 µM); MIC [26]: 3.13 µg/mL (≈ 9.05 µM); MIC [27]: > 100 µg/mL; MIC [28]: 12.5 µg/mL (≈ 36.2 µM); MIC [29]: 100 µg/mL (≈ 289 µM); MIC [30]: < 0.05 µg/mL
